We go through eleven molecules from US8013010B2, “5-thioxylopyranose compounds” (Laboratoires Fournier S.A., priority 2006, dated 2011).

One data set has as its system venous thrombosis. The experiment in a line: venous thrombosis test in rats (venous stasis under hypercoagulation with factor Xa, Wessler technique), activity via the oral route. It is filed as in vivo, rat. Conditions: male Wistar rats, dose 6 mg/kg, thrombosis induced 2 h after administration. The procedure: The antithrombotic activity of the compounds according to the invention was studied in vivo in rats by virtue of a test in which a venous thrombosis is reproduced. The venous thrombosis was induced according to the protocol described in Thromb. Haemost., 1992, 67(1), 176-179. The activity via the oral route was studied according to the procedure described below. The experiment is carried out on non-fasting male Wistar rats weighing from 250 to 280 g and divided into groups of 10 animals each. The test products are administered orally (intubation) in solution or in suspension in a methylcellulose solution (0.5% in water). The concentrations of the compounds are calculated so as to bring about the absorption of an amount of solution of 10 ml/kg orally. A thrombosis is induced at time T after the administration of the product and the thrombus formed is removed and weighed. In order to induce this thrombosis, a venous stasis is brought about under hypercoagulation, according to the technique described by Wessler (J. Applied Physiol., 1959, 943-946), using a solution of activated factor X (Xa), supplied by Biogenic (Montpellier) and comprising a dose of 7.5 nKat/kg, as hypercoagulant. The venous stasis is brought about 10 seconds exactly after the injection of the hypercoagulant. The activity of the test compounds was monitored at various doses, after they had been administered. The thrombosis was induced 2 hours after the administration of the compound. By way of example, the results of the above tests are given in the following table for a few compounds according to the invention (the activity is expressed by the percentage of inhibition of the formation of the thrombus, observed in the presence of the compound according to the invention, with respect to the weight of the thrombus formed in the absence of the compound).

A word on the melting point: it is the temperature of the solid-liquid transition. `O[C@@H]1[C@@H](O)[C@H](Oc2ccccc2-c2cccnc2)SC[C@H]1O` [Example 18, 2-(3-Pyridinyl)phenyl 5-thio-β-D-xylopyranoside] showed a melting point of 195 °C.
Regarding `O[C@@H]1[C@@H](O)[C@H](Oc2cccc(-c3ccccn3)c2)SC[C@H]1O` [Example 12, 3-(2-Pyridinyl)phenyl 5-thio-β-D-xylopyranoside], the melting point was 138 to 139 °C. Moreover, the “Activity (percentage of inhibition of the formation of the thrombus)” value with venous thrombosis was 88%.
In turn, `COc1ncccc1-c1cccc(O[C@@H]2SC[C@@H](O)[C@H](O)[C@H]2O)c1` [Example 33, 3-(2-Methoxy-3-pyridinyl)phenyl 5-thio-β-D-xylopyranoside] registered a melting point of 194 °C.
`O[C@@H]1[C@@H](O)[C@H](Oc2ccccc2-c2ccncc2)SC[C@H]1O` [Example 16, 2-(4-Pyridinyl)phenyl 5-thio-β-D-xylopyranoside] displayed a melting point of 134 °C.
For `O[C@@H]1[C@@H](O)[C@H](Oc2ccc(-c3ccncc3)cc2)SC[C@H]1O` [Example 8, 4-(4-Pyridinyl)phenyl-5-thio-β-D-xylopyranoside], the “Activity (percentage of inhibition of the formation of the thrombus)” value in the data set with venous thrombosis was determined as 91%.
For the molecule `O[C@@H]1[C@@H](O)[C@H](Oc2cccc(-c3cccnc3)c2)SC[C@H]1O` [Example 22, 3-(3-Pyridinyl)phenyl 5-thio-β-D-xylopyranoside], the melting point stood at 197 °C. In addition, the “Activity (percentage of inhibition of the formation of the thrombus)” value in the data set with venous thrombosis was determined as 81%.
Regarding `O[C@@H]1[C@@H](O)[C@H](Oc2ccc(-c3cccnc3)cc2)SC[C@H]1O` [Example 6, 4-(3-Pyridinyl)phenyl 5-thio-β-D-xylopyranoside], the melting point came to 166 °C.
Same read-out and setting: as for `Cc1ccc(-c2cccc(O[C@@H]3SC[C@@H](O)[C@H](O)[C@H]3O)c2)cn1` [Example 29, 3-(6-Methyl-3-pyridinyl)phenyl 5-thio-β-D-xylopyranoside], the figure is 177 °C; as for `O[C@@H]1[C@@H](O)[C@H](Oc2ccc(-c3cccnc3)cc2F)SC[C@H]1O` [Example 24, 2-Fluoro-4-(3-pyridinyl)phenyl 5-thio-β-D-xylopyranoside], 207 °C.
For `O[C@@H]1[C@@H](O)[C@H](Oc2ccc(-c3ccccn3)cc2)SC[C@H]1O` [Example 10, 4-(2-Pyridinyl)phenyl 5-thio-β-D-xylopyranoside], the melting point came out at 197 °C. Besides, in the data set with venous thrombosis, the “Activity (percentage of inhibition of the formation of the thrombus)” value is reported as 86%.
Regarding `O[C@@H]1[C@@H](O)[C@H](Oc2cc(F)ccc2-c2ccncc2)SC[C@H]1O` [Example 28, 5-Fluoro-2-(4-pyridinyl)phenyl 5-thio-β-D-xylopyranoside], the “Activity (percentage of inhibition of the formation of the thrombus)” value in the data set on venous thrombosis came out at 71%.
